Where a name gives a salt, the structure may show the parent alone. ± gives the standard deviation of the averaged measurements.
Test system: SW982
Assay: relative viability vs DMSO control (72 h) (fraction); higher = more viable cells
Procedure, shortened: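 A 5 µM positive control and 0.1% DMSO vehicle ran alongside sarcoma cell lines seeded in 384-well plates to reach 80–90% confluence. Serially diluted compound, 2.5 µl from source plates of 10 mM to 0.0002 mM, was added after 24 h, and the plates were held 72 h at 37 °C, 5% CO2. Relative viability was worked out from ATPLite readings as percent growth averaged over up to triplicate wells. The values were rescaled so that 1 is full and 0 is none.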

SMILES	relative viability (0.00017 µM)	relative viability (0.00051 µM)	relative viability (0.00152 µM)	relative viability (0.00457 µM)	relative viability (0.01372 µM)	relative viability (0.04115 µM)	relative viability (0.1235 µM)	relative viability (0.3704 µM)	relative viability (1.111 µM)	relative viability (3.333 µM)	relative viability (10 µM)
CC(C)(C)c1cc(NC(=O)Nc2ccc(-c3cn4c(n3)sc3cc(OCCN5CCOCC5)ccc34)cc2)no1 [Quizartinib]	1.06 ± 0.028	1.05 ± 0.017	1.05 ± 0.03	1.05 ± 0.029	1.06 ± 0.017	1.06 ± 0.022	1.06 ± 0.027	1.04 ± 0.031	1.05 ± 0.017	1.05 ± 0.039	1.05 ± 0.039
CNC(=O)c1ccc(-c2cnc3ncc(Cc4ccc5ncccc5c4)n3n2)cc1F [Capmatinib]	1.04 ± 0.023	1.07 ± 0.045	1.07 ± 0.076	1.042 ± 0.0035	1.06 ± 0.067	1.03 ± 0.025	1.04 ± 0.028	1.06 ± 0.045	1.07 ± 0.06	1.06 ± 0.057	1.02 ± 0.024
CC(C)N1CCN(Cc2cnc(-c3cc(-c4cccc5[nH]ccc45)cc4[nH]ncc34)o2)CC1 [Nemiralisib]	0.946 ± 0.032	0.961 ± 0.044	0.918 ± 0.042	0.923 ± 0.038	0.954 ± 0.012	0.93 ± 0.061	0.916 ± 0.033	0.89 ± 0.056	0.805 ± 0.039	0.654 ± 0.032	0.275 ± 0.014
C[C@@H](c1ccc2nccn2c1)n1nnc2ncc(-c3cnn(C)c3)nc21 [Volitinib]	1.05 ± 0.02	1.07 ± 0.012	1.05 ± 0.012	1.05 ± 0.056	1.07 ± 0.03	1.06 ± 0.022	1.03 ± 0.021	1.07 ± 0.016	1.04 ± 0.034	1.07 ± 0.011	1.06 ± 0.025
COc1c(OCCCN2CCOCC2)ccc2c1N=C(NC(=O)c1cnc(N)nc1)N1CCN=C21 [Copanlisib]	1.04 ± 0.024	1.02 ± 0.022	1.04 ± 0.043	0.881 ± 0.016	0.797 ± 0.032	0.704 ± 0.029	0.529 ± 0.01	0.391 ± 0.019	0.213 ± 0.011	0.177 ± 0.0066	0.177 ± 0.0061
CCN1CCN(Cc2ccc(Nc3ncc(F)c(-c4cc(F)c5nc(C)n(C(C)C)c5c4)n3)nc2)CC1 [Abemaciclib]	1.05 ± 0.036	1.06 ± 0.046	1.04 ± 0.043	1.06 ± 0.041	1.07 ± 0.035	0.987 ± 0.031	0.787 ± 0.046	0.593 ± 0.02	0.469 ± 0.013	0.302 ± 0.12	0.0803 ± 0.12
C[C@]1(O)C[C@@H](c2nc(-c3ccc4ccc(-c5ccccc5)nc4c3)c3c(N)nccn32)C1 [Linsitinib]	1.01 ± 0.028	1.04 ± 0.026	1.03 ± 0.028	1.05 ± 0.031	1.05 ± 0.028	1.02 ± 0.041	0.918 ± 0.041	0.875 ± 0.035	0.824 ± 0.045	0.79 ± 0.035	0.583 ± 0.021
Cc1ccc(NC(=O)c2ccc(CN3CCN(C)CC3)cc2)cc1Nc1nc(-c2cccnc2)cs1 [Masitinib]	0.965 ± 0.027	0.996 ± 0.01	0.989 ± 0.015	0.983 ± 0.02	0.97 ± 0.026	0.961 ± 0.033	0.923 ± 0.025	0.89 ± 0.027	0.784 ± 0.045	0.513 ± 0.03	0.0613 ± 0.0081
CN1CCN(c2ccc3nc(-c4c(N)c5c(F)cccc5[nH]c4=O)[nH]c3c2)CC1 [Dovitinib]	1.02 ± 0.018	1.03 ± 0.041	1.01 ± 0.015	0.98 ± 0.027	1.01 ± 0.059	1.01 ± 0.059	0.94 ± 0.036	0.793 ± 0.012	0.483 ± 0.015	0.237 ± 0.022	0.0627 ± 0.033
CC(=O)Nc1cccc(-n2c(=O)n(C3CC3)c(=O)c3c(Nc4ccc(I)cc4F)n(C)c(=O)c(C)c32)c1 [Trametinib]	0.993 ± 0.045	0.988 ± 0.044	0.981 ± 0.028	0.938 ± 0.051	0.893 ± 0.095	0.866 ± 0.07	0.847 ± 0.084	0.848 ± 0.038	0.858 ± 0.049	0.838 ± 0.049	0.799 ± 0.027
C=CC(=O)N1CCC[C@@H](n2nc(-c3ccc(Oc4ccccc4)cc3)c3c(N)ncnc32)C1 [Ibrutinib]	1.02 ± 0.016	1.06 ± 0.039	1.07 ± 0.011	1.05 ± 0.035	1.03 ± 0.033	1.05 ± 0.02	1.05 ± 0.035	1.06 ± 0.051	1.08 ± 0.036	1.04 ± 0.027	0.845 ± 0.044
COc1cc2/c(=N/c3ccc(Br)cc3F)nc[nH]c2cc1OCC1CCN(C)CC1 [Vandetanib]	0.997 ± 0.044	1 ± 0.035	0.977 ± 0.021	1.01 ± 0.033	1.01 ± 0.078	1.03 ± 0.041	0.983 ± 0.075	0.873 ± 0.077	0.699 ± 0.084	0.291 ± 0.032	0.0207 ± 0.0067
C[C@@H]1COCCN1c1cc(-c2ccnn2C)c2ccnc(-c3ccn[nH]3)c2n1	1.04 ± 0.031	1.05 ± 0.052	1.05 ± 0.056	1.04 ± 0.015	0.989 ± 0.028	0.685 ± 0.039	0.499 ± 0.009	0.322 ± 0.011	0.1893 ± 0.0012	0.149 ± 0.002	0.142 ± 0.0075
COc1cccc2c1C(=O)c1c(O)c3c(c(O)c1C2=O)C[C@@](O)(C(=O)CO)C[C@@H]3O[C@H]1C[C@H](N)[C@H](O)[C@H](C)O1 [Doxorubicin Hydrochloride]	1.05 ± 0.0095	1.05 ± 0.057	1.07 ± 0.025	1.04 ± 0.035	0.796 ± 0.022	0.457 ± 0.025	0.326 ± 0.019	0.1607 ± 0.0012	0.127 ± 0.0062	0.165 ± 0.005	0.139 ± 0.0092
O=C(Nc1cnn2ccc(N3CCC[C@@H]3c3cc(F)ccc3F)nc12)N1CC[C@H](O)C1 [Larotrectinib]	1.02 ± 0.015	1 ± 0.022	1.01 ± 0.036	1.07 ± 0.026	1.07 ± 0.031	1.058 ± 0.0089	1.05 ± 0.025	1.02 ± 0.019	1.05 ± 0.027	1.05 ± 0.032	1.01 ± 0.02
Cc1cc(C)c(/C=C2\C(=O)Nc3ccccc32)[nH]1 [Semaxanib]	1.02 ± 0.03	1.02 ± 0.031	0.997 ± 0.022	0.9929 ± 0.0051	0.968 ± 0.011	0.96 ± 0.029	0.947 ± 0.03	0.933 ± 0.011	0.904 ± 0.02	0.879 ± 0.028	0.821 ± 0.041
CC1(C)CNc2cc(NC(=O)c3cccnc3NCc3ccncc3)ccc21 [Motesanib]	0.9792 ± 0.0014	0.972 ± 0.029	0.964 ± 0.039	0.964 ± 0.032	0.954 ± 0.013	0.933 ± 0.046	0.978 ± 0.042	0.965 ± 0.013	0.969 ± 0.033	0.9654 ± 0.0093	0.908 ± 0.086
Cc1nc(-c2cn3c(n2)-c2ccc(-c4cnn(C(C)(C)C(N)=O)c4)cc2OCC3)n(C(C)C)n1 [Taselisib]	1.03 ± 0.045	1.04 ± 0.023	1.02 ± 0.043	1.02 ± 0.02	1.02 ± 0.034	0.968 ± 0.02	0.898 ± 0.026	0.7957 ± 0.0075	0.633 ± 0.035	0.506 ± 0.016	0.339 ± 0.02
CC(C)NC(=O)C1CCC(n2c(NC(=O)c3ccc(F)cc3)nc3ccc(CN4CCC(C(C)(C)O)CC4)cc32)CC1 (centres undefined) [Belizatinib]	1.09 ± 0.024	1.06 ± 0.023	1.05 ± 0.037	1.06 ± 0.03	1.06 ± 0.02	1.03 ± 0.054	0.974 ± 0.048	0.766 ± 0.045	0.383 ± 0.035	0.173 ± 0.011	0.0273 ± 0.0064
